From publication PMC4645160, “Targeting kinases with anilinopyrimidines: discovery of N-phenyl-N’-[4-(pyrimidin-4-ylamino)phenyl]urea derivatives as selective inhibitors of class III receptor tyrosine kinase subfamily” (Scientific Reports, 2015)
Where two headings read alike, the source gives them in different places.

Experiments:
[1] = system: A431 cells; assay: MTT cytotoxicity assay, A431 epidermoid carcinoma cells; format: cell-based; conditions: Homo sapiens, A-431; MTT test, 72 h; read-out: A431 IC50 (μM) ± SD
Method: F. Zunino (Division of Experimental Oncology B, Istituto Nazionale dei Tumori, Milan, Italy).
The growth inhibitory effect towards human cell lines was evaluated by means of MTT (tetrazolium salt reduction) assay. […] Triplicate cultures were established for each treatment.

[2] = biological target: T1, FLT3 (Homo sapiens, UniProt P36888); assay: KinomeScan Kd determination, FLT3; format: binding; conditions: for KdRTK/KdKIT, FLT3: Kd FLT3 over Kd KIT; for Kd: KinomeScan
T1 construct: purchased DiscoverX (KinomeScan service)
T1 sequence (P36888 27-993): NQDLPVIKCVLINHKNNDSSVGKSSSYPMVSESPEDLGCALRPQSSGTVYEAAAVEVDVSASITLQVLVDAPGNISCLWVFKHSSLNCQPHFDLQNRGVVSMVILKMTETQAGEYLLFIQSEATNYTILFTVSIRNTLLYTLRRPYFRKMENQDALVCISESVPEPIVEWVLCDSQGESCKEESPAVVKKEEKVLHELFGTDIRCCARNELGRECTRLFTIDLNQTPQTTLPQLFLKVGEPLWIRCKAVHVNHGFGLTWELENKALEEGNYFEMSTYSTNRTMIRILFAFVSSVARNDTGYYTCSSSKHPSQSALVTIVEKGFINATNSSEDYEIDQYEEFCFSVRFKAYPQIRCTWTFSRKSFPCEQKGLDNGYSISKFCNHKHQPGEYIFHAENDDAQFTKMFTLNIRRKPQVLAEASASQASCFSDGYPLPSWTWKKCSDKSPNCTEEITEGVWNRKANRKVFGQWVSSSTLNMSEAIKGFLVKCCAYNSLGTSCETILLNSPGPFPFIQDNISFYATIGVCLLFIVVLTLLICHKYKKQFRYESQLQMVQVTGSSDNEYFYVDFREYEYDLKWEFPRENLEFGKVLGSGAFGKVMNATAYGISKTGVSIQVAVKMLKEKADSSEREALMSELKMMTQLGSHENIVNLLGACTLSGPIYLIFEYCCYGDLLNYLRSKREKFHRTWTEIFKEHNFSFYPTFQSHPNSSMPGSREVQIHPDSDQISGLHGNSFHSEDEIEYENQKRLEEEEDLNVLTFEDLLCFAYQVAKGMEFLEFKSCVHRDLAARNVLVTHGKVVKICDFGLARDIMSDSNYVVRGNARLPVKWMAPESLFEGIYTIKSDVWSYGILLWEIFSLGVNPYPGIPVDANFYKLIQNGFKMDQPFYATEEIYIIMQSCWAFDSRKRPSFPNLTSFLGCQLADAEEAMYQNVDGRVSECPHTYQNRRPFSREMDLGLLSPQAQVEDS
Method: The compounds were evaluated using the KinomeScan™ platform (http://www.discoverx.com/services/drug-discovery-development-services/kinase-profiling/kinomescan), that measures the ability of the test compound to disrupt the complex between a high affinity ATP-mimic probe immobilized on a solid support and the kinase of interest. The KinomeScan is a very helpful technology for the fast and reliable screening of a number of compounds against a wide and customizable panel of kinases. Besides, it is not based on the use of hazardous radioactive ^32P-ATP and has a very low rate of false positive (<1%)[44]. The screening platform outputs a “Percent of Control” (POC) value, statistically correlated to the dissociation constant (Kd) value (http://www.discoverx.com/tools-resources/leadhunter-study-reports-data-analysis), for each pair of kinase/ligand. The POC is calculated as reported in equation (1): […]
The ability of compounds 19 and 27 to bind the class III RTK members was measured (Table 2; see also Figs S3 and S4 for dose/response curves).
Figure S3. Dose/response curve for compound 19 against tested kinases for Kd determination. The amount of kinase measured by qPCR (Signal; y-axis) is plotted against the corresponding compound concentration in nM in log10 scale (x-axis). Data points marked with an "x" were not used for Kd determination.
(1 picture or pasted object on this page, not shown here)
Figure S4. Dose/response curve for compound 27 against tested kinases for Kd

[3] = system: BxPC3 cells; assay: MTT cytotoxicity assay, BxPC3 pancreatic adenocarcinoma cells; format: cell-based, human; conditions: for IC50: Homo sapiens, BXPC-3, MTT test, 72 h of drug treatment, read-out: BxPC3 IC50 (μM) ± SD
Method: Compounds active against at least one kinase among EGFR and class III RTKs were evaluated for their cytotoxic properties against two different human cancer cell lines, namely non small cells A549 lung cancer cells (sensitive to EGFR inhibitors)[46] and pancreatic BxPC3 adenocarcinoma (sensitive to both PDGFRβ and EGFR inhibitors)[47][48] cells. […] The results, expressed as IC50 values (μM) calculated from the dose-survival curves obtained after 72 h of drug treatment from the MTT test, are reported in Table 1.
All compounds, except derivative 27, were dissolved in DMSO just before the experiment, and a calculated amount of drug solution was added to the cell growth medium to a final solvent concentration of 0.5%, which had no discernible effect on cell killing. Compound 27 was dissolved in a 0.9% NaCl solution just before the experiment.
Human lung (A549), breast (MCF-7), pancreas (BxPC3), and colon (LoVo) carcinoma cell lines along with melanoma (A375) were obtained from American Type Culture Collection (ATCC, Rockville, MD). Human non-tumor embryonic kidney HEK293 cells were obtained from European Collection of Cell Cultures (ECACC, Salisbury, UK). Human cervical carcinoma A431cells were kindly provided by Prof. F. Zunino (Division of Experimental Oncology B, Istituto Nazionale dei Tumori, Milan, Italy). Human ovarian cancer 2008 cells were kindly provided by Prof. G. Marverti (Dept. of Biomedical Science of Modena University, Italy). Cell lines were maintained in the logarithmic phase at 37 °C in a 5% carbon dioxide atmosphere using the following culture media containing 10% fetal calf serum (Euroclone, Milan, Italy), antibiotics (50 units ∙ mL^−1 penicillin and 50 μg ∙ mL^−1 streptomycin) and 2 mM l-glutamine: i) RPMI-1640 medium (Euroclone) for MCF-7, A431, BxPC3 and 2008 cells; ii) F-12 HAM’S (Sigma Chemical Co.) for A549 and LoVo cells; iii) D-MEM medium (Euroclone) for HEK293 cells.
The growth inhibitory effect towards human cell lines was evaluated by means of MTT (tetrazolium salt reduction) assay. Briefly, 3–8 ∙ 10^3 cells/well, dependent upon the growth characteristics of the cell line, were seeded in 96-well microplates in growth medium (100 μL) and then incubated at 37 °C in a 5% carbon dioxide atmosphere. After 24 h, the medium was removed and replaced with a fresh one containing the test compound at the appropriate concentration. Triplicate cultures were established for each treatment. After 72 h, each well was treated with 10 μL of a 5 mg ∙ mL-1 MTT (3-(4,5-dimethylthiazol-2-yl)-2,5-diphenyltetrazolium bromide) saline solution, and after 5 h additional incubation, 100 μL of a sodium dodecylsulfate (SDS) solution in HCl 0.01 M were added. After overnight incubation, the inhibition of cell growth induced by the tested complexes was detected by measuring the absorbance of each well at 570 nm using a Bio-Rad 680 microplate reader (Bio-Rad, Hercules, CA). Mean absorbance for each drug dose was expressed as a percentage of the control untreated well absorbance and plotted vs drug concentration.

SMILES	IC50 [1]	KdRTK/KdKIT, FLT3 [2]	Kd ([2]; read-out: Kd (nM) FLT3)	IC50 [3]	Potency improvement Kd19/Kd27, FLT3 ([2]; 27 versus 19)	Kd ([2]; bound stated, read-out: Kd against FLT3)	Potency relative to SU (BxPC3) ([3]; ratio between IC50 of sunitinib and IC50 of tested compound, BxPC3)
O=C(Nc1ccccc1)Nc1ccc(Nc2cc(-c3ccccc3)ncn2)cc1 [Compound 19]	2.85 ± 1.03 µM	209	4600 nM	0.77 ± 0.21 µM	–	–	–
O=C(CN1CCOCC1)Nc1cccc(-c2cc(Nc3ccc(NC(=O)Nc4ccccc4)cc3)ncn2)c1 [Compound 27]	1.96 ± 0.92 µM	130	1300 nM	0.81 ± 0.32 µM	3.5	> 1000 nM	6
